Experimental data from article PMC6981581, “N-(2-Arylmethylthio-4-Chloro-5-Methylbenzenesulfonyl)amide Derivatives as Potential Antimicrobial Agents—Synthesis and Biological Studies” (International Journal of Molecular Sciences, 2019).
“And” between values parts separate entries of the source, which are not always exact repeats. Equal entries are not always repeated.

Columns and labels:
Type in all cases: cell-based
[1] = system: S.aureus 51 (MRSA); assay: Broth dilution MIC/MBC, clinical MRSA isolate; settings: Staphylococcus aureus, clinical MRSA S.aureus 51
Text: (§1) […]. Both MRSA and MSSA strains were derived from various human infections.
(§2) […]. Five methicillin-resistant S. aureus strains were isolated from nose (n = 1), bronchoalveolar lavage (n = 1), sputum (n = 1), wound (n = 1), and blood (n = 1); five methicillin-susceptible S. aureus strains were isolated from throat (n = 1), bronchoalveolar lavage (n = 1), sputum (n = 1), abscess (n = 1), and blood (n = 1).
(§3) The identity of S. aureus isolates was confirmed with conventional methods and with Pastorex Staph-Plus latex agglutination kit (Bio-Rad, Marnes-la-Coquette, France) and verified applying the polymerase chain reaction (PCR) of S. aureus-specific region of the thermonuclease gene, nuc. Resistance to methicillin was first verified using cefoxitin disk (30 µg), and then, identified based on the presence of mecA gene. S. aureus ATCC®25923 (methicillin-susceptible) and S. aureus ATCC®43300 (MDR) were applied as the reference strains. Both the reference and clinical strains were stored at −80 °C, in Tryptic Soy Broth (TSB, Becton-Dickinson, Franklin Lakes, NJ, USA) supplemented with 15% glycerol.
(§4) A broth dilution method was used to determine minimal inhibitory concentration (MIC) for tested compounds as recommended by Clinical Laboratory Standards Institute (CLSI) guidelines. Investigated compounds were diluted in Mueller Hinton Broth 2 (Sigma-Aldrich Co., St. Louis, MO, USA) in polypropylene 96-well plates and initial inoculum 5 × 10^5 cfu/mL were incubated at 37 °C for 18 h. MIC was taken as the lowest drug concentration at which an observable growth was inhibited. […] The loopful (10 µL) of the tested sample was transferred to Tryptic Soy Agar (TSA, Becton-Dickinson, Franklin Lakes, NJ, USA) and incubated at 37 °C for 48 h. […] Drug Solutions were made fresh on the day of the assay. All experiments were performed in triplicate.

[2] = system: S.aureus 50 (MRSA); assay: Broth dilution MIC/MBC, clinical MRSA isolate; settings: Staphylococcus aureus, clinical MRSA S.aureus 50
Text: as §1, §2, §3, §4

[3] = system: S.aureus 53 (MRSA); assay: Broth dilution MIC/MBC, clinical MRSA isolate; settings: Staphylococcus aureus, clinical MRSA S.aureus 53
Text: as §1, §2, §3, §4

[4] = system: S.aureus 54 (MRSA); assay: Broth dilution MIC/MBC, clinical MRSA isolate; settings: Staphylococcus aureus, clinical MRSA S.aureus 54
Text: as §1, §2, §3, §4

[5] = system: S.aureus 52 (MRSA); assay: Broth dilution MIC/MBC, clinical MRSA isolate; settings: Staphylococcus aureus, clinical MRSA S.aureus 52
Text: as §1, §2, §3, §4

[6] = system: S.aureus 58 (MSSA); assay: Broth dilution MIC/MBC, clinical MSSA isolate; settings: Staphylococcus aureus, clinical MSSA S.aureus 58
Text: as §1, §2, §3, §4

[7] = system: S.aureus 57 (MSSA); assay: Broth dilution MIC/MBC, clinical MSSA isolate; settings: Staphylococcus aureus, clinical MSSA S.aureus 57
Text: as §1, §2, §3, §4

[8] = system: S.aureus 55 (MSSA); assay: Broth dilution MIC/MBC, clinical MSSA isolate; settings: Staphylococcus aureus, clinical MSSA S.aureus 55
Text: as §1, §2, §3, §4

[9] = system: S.aureus 56 (MSSA); assay: Broth dilution MIC/MBC, clinical MSSA isolate; settings: Staphylococcus aureus, clinical MSSA S.aureus 56
Text: as §1, §2, §3, §4

[10] = system: S.aureus 59 (MSSA); assay: Broth dilution MIC/MBC, clinical MSSA isolate; settings: Staphylococcus aureus, clinical MSSA S.aureus 59
Text: as §1, §2, §3, §4

[11] = system: HeLa (cervical cancer); assay: MTT cell viability assay; settings: Homo sapiens, 72 h incubation, mean ± SD
Protocol: (§5) Analysis was performed using the MTT test and 72 h of incubation.
(§6) All chemicals were obtained from Sigma-Aldrich (St. Louis, MO, USA). The MCF-7 and HeLa cell lines were purchased from Cell Lines Services (Eppelheim, Germany), the HCT-116 cell line was purchased from ATCC (ATCC-No: CCL-247). Cells were cultured in Dulbecco’s modified Eagle’s medium (DMEM) supplemented with 10% fetal bovine serum, 2 mM glutamine, 100 units/mL penicillin, and 100 μg/mL streptomycin. Cultures were held in an incubator (Heraceus, HeraCell) in a humidified atmosphere with 5% CO2 at 37 °C.
(§7) Cell viability was evaluated using the MTT (3-(4,5-dimethylthiazol-2-yl)-2,5-diphenyltetrazolium bromide) assay. Stock solutions of the studied compounds were obtained in 100% DMSO. […] Cells at a density of 5 × 10^3 cells/well, seeded in 96-well plates, were treated for 72 h with the tested compounds in the concentration range 1–100 μM (1, 10, 25, 50 and 100 μM). After treatment, cells were incubated for 2 h with MTT (0.5 mg/mL) at 37 °C. Cells were lysed with DMSO and the absorbance of the formazan solution was measured at 550 nm with a plate reader (1420 multilabel counter, Victor, Jügesheim, Germany). Values are expressed as the mean ± SD of at least three independent experiments conducted in triplicate.

[12] = system: MCF-7 (breast cancer); assay: MTT cell viability assay; settings: Homo sapiens, MCF7, 72 h incubation, mean ± SD
Protocol: as §5, §6, §7

[13] = system: HCT-116 (colon cancer); assay: MTT cell viability assay; settings: Homo sapiens, 72 h incubation, mean ± SD
Protocol: as §5, §6, §7

[14] = system: HaCaT cell line (human keratinocyte); assay: MTT cell viability assay; settings: MTT assay, 72 h incubation, mean ± SD, read-out: IC50 HaCaT

Cc1cc(S(=O)(=O)NC(=O)CCC2CCCCC2)c(SCc2cccc(C(F)(F)F)c2)cc1Cl [Compound 10, N-[4-Chloro-5-methyl-2-(3-trifluoromethylbenzylthio)benzenesulfonyl]-3-cyclohexylpropanamide]
4 µg/mL: MIC ([1]; read-out: MIC) | MIC ([2]; read-out: MIC) | MIC ([3]; read-out: MIC) | MIC ([4]; read-out: MIC) | MIC ([5]; read-out: MIC) | MIC ([6]; read-out: MIC) | MIC ([7]; read-out: MIC) | MIC ([8]; read-out: MIC) | MIC ([9]; read-out: MIC) | MIC ([10]; read-out: MIC)
95 µg/mL and 178 µM: IC50 [14]
94 ± 3 µM: IC50 [11]
> 128 µg/mL: MBC ([1]; read-out: MBC) | MBC ([2]; read-out: MBC) | MBC ([3]; read-out: MBC) | MBC ([4]; read-out: MBC) | MBC ([5]; read-out: MBC) | MBC ([6]; read-out: MBC) | MBC ([7]; read-out: MBC) | MBC ([8]; read-out: MBC) | MBC ([9]; read-out: MBC) | MBC ([10]; read-out: MBC)
81 ± 3 µM: IC50 [12]
78 ± 3 µM: IC50 [13]
